Assay results reported in US8354387B2, “Methods and compositions for delivering siRNA into mammalian cells” (Centre National de la Recherche Scientifique, priority 2004, dated 2013).

Test system: human fibroblasts (Hs68) or HeLa cells
Assay: Delivery of pRL-SV40 luciferase plasmid with inhibitors of the endosomal pathway or at 4° C.
Format: cell-based
Protocol: FIG. 1: MPG-mediated gene delivery in the presence of inhibitors of the endosomal pathway. A/ MPG/DNA complexes formed at a charge ratio of 5/1 with 100 ng pRL-SV40 plasmid encoding the reporter gene luciferase were overlaid onto human fibroblasts (Hs68) in the presence of either bafilomycin A (Baf-A: 150 nM), cytochalasin B (Cy-B: 50 μg/ml) or chloroquine (Chi: 100 μM). After 48 hrs cell extracts were prepared and luciferase activity was measured and reported as a function of total protein (black). Similar experiments were performed using a lipid-based delivery system, Lipofectamine™, as a control (white). Experiments in the absence of inhibitors were also performed using an MPG peptide lacking a C-terminal cysteamide group (grey). B/ A 36mer fluorescein labelled oligonucleotide was complexed with MPG at a charge ratio of 5/1. Complexes were then overlaid onto cultured Hela cells in the presence of bafilomycin A (middle panel) or cytochalasin B (bottom panel) and cellular localization of the oligonucleotide was monitored by fluorescence microscopy on living cells 1 hr after transfection. A control experiment with free oligonucleotide is shown in the top panel.
Hs68, Cos-7 and HeLa cell lines were cultured in Dulbecco's Modified Eagle's Medium supplemented with 2 mM glutamine, 1% antibiotics (streptomycin 10 000 μg/ml, penicillin, 10,000 IU/ml) and 10% (w/v) fetal calf serum (FCS) at 37° C. in a humidified atmosphere containing 5% CO2 as described previously (18). For MPG or MPG^ΔNLS-mediated gene delivery, peptide carrier/DNA complexes were formed in DMEM or PBS (500 μl of DMEM containing 100 ng of DNA complexed with MPG at a charge ratio 5:1) and incubated for 30 min at 37° C. Cells grown to 60% confluence were then overlaid with these preformed complexes. […]
For cell cycle-dependent studies, Hs68 fibroblasts were synchronized by serum deprivation for 40 hrs, then restimulated to enter the cycle and grow into early G1 for 4 hrs by addition of fresh DMEM supplemented with 20% FCS, and incubated in the presence of MPG/DNA complexes as described above. Luciferase activity was monitored as described previously (19) and control transfection experiments were performed using Lipofectamine™. […]
A plasmid encoding the reporter gene luciferase, pRL-SV40, was associated with MPG carrier at a charge ratio of 5:1 (MPG/DNA) and overlaid onto cultured human fibroblasts (Hs68) or HeLa cells in the presence of either bafilomycin A (150 nM), chloroquine (100 μM) or cytochalasin B (50 μg/ml). Transfection efficiency was monitored 30 hrs after transfection and Lipofectamine™ was used as a standard control method for transfection. […]

Sequence: GALFLGFLGAAGSTMGAWSQPKKKRKV (carrier peptide) [MPG, bipartite amphipathic peptide derived from fusion peptide domain of HIV-1 gp41 and NLS of SV40 large T antigen]
- localization of fluorescently labelled oligonucleotide in presence of inhibitors (36mer fluorescein oligonucleotide, charge ratio 5/1, Hela cells, after one hour): localized to the nucleus and to cytoplasm of the cells
- increase of efficiency by chloroquine (chloroquine 100 μM, pRL-SV40): 10%
- transfection efficiency in presence of bafilomycin A or cytochalasin B (pRL-SV40, charge ratio 5:1, bafilomycin A 150 nM, cytochalasin B 50 μg/ml): not affected
- reduction of transfection efficiency at 4° C. (transfection performed at 4° C.): 12 fold
